From ChEMBL document CHEMBL5725801, “Fused heterocyclic compounds as CaM kinase inhibitors” (2018) come the findings set out here.

Molecules are shown by their SMILES.

The nature of this assay: CaMKII Cell-Based Activity: CaMKII activity in neonatal rat ventricular myocytes (NRVM) was measured by monitoring the phosphorylation level of phospholamban using high-content imaging. NRVMs were plated in a clear bottom 384-well plate in medium supplemented with 10% fetal bovine serum (FBS) and incubated at 37° C., 5% CO2 overnight. The medium was changed to a serum-free medium and compounds were dosed to the cells. The cells were incubated at 37° C., 5% CO2 for 4 hours and were then treated with 100 nM ATX-II (Alomone Labs) to activate CaMKII. 10 minutes after the addition of ATX-II, the cells were fixed with 4% formaldehyde followed by permeabilization with 0.1% triton X100. The fixed cells were stained with an anti-phospho-phospholamban primary antibody (Santa Cruz Biotechnology) and an Alexa488-labeled anti-rabbit IgG secondary antibody (Life Technologies Corporation) as well as Hoechst 33342 (Life Technologies Corporation). The cells were imaged using an ArrayScan VTI (Cellomics) and analyzed for cells containing a positive fluorescent signal at 485 nm, reported as % responder. The % responders were plotted against the compound concentration to determine the compounds EC50.
The EC50 is the concentration needed to bring the measured effect to its halfway point. As to `CCN(CC)[C@@H](C)CNC(=O)c1cc(-c2cnn3ccc(-c4cccs4)nc23)nc(N2CC[C@H]2C(=O)N2CC(C)(C)C2)c1`, the EC50 came out at 79 nM. In other words, the double-digit nanomolar range.

Consider `CCN(CC)c1cc(C(=O)NC[C@H](C)N(CC)CC)cc(-c2cnn3ccc(-c4cccs4)nc23)n1`, for which the EC50 was determined as 40.4 nM.

In the case of `CCN(CC)[C@@H](C)CNC(=O)c1cc(-c2cnn3ccc(-c4cccs4)nc23)nc(N2CC[C@H]2C(=O)N(C)OC)c1`, the EC50 came out at 28.6 nM.

Compound `CCN(CC)[C@@H](C)CNC(=O)c1cc(-c2cnn3ccc(-c4cccs4)nc23)nc(N2CCC[C@@H]2C(N)=O)c1` returned an EC50 of 166 nM.

The compound `CCN(CC)[C@@H](C)CNC(=O)c1cc(-c2cnn3ccc(-c4ccncc4)nc23)nc(N2CC(OC)C2)c1` gave an EC50 of 607 nM.

In turn, `CCN(CC)[C@@H](C)CNC(=O)c1cc(-c2cnn3ccc(-c4cccs4)nc23)nc(N2CC[C@H]2C(=O)N2CC3CC3C2)c1` (stereo not given in full) yielded an EC50 of 33.9 nM.

In the case of `CCN(CC)[C@@H](C)CNC(=O)c1cc(-c2cnn3ccc(-c4cccs4)nc23)nc(N2CCC[C@@H]2COC)c1`, it took 260 nM to reach a half-maximal effect (EC50).

`CCN(CC)[C@@H](C)CNC(=O)c1cc(-c2cnn3ccc(-c4cccs4)nc23)nc(N2CC[C@H]2C(=O)NCC2CC2)c1` gave an EC50 of 33.4 nM.

In the case of `CCN(CC)[C@@H](C)CNC(=O)c1cc(-c2cnn3ccc(-c4cccs4)nc23)nc(N2CCC[C@@H]2CO)c1`, the EC50 worked out at 45.9 nM.

`CCN(CC)[C@@H](C)CNC(=O)c1cc(-c2cnn3ccc(-c4cccs4)nc23)nc(N2CCC3(COC3)C2)c1` displayed a concentration for a half-maximal effect (EC50) of 18.2 nM.

`CCN(CC)[C@@H](C)CNC(=O)c1cc(-c2cnn3ccc(-c4cccs4)nc23)nc(N2CC[C@H]2C(=O)NCC(F)F)c1` registered an EC50 of 27.5 nM. This EC50 lies about 1.5-fold higher than the previous one.

The compound `CCN(CC)[C@@H](C)CNC(=O)c1cc(NCC(=O)NC)nc(-c2cnn3ccc(-c4cccs4)nc23)c1` registered an EC50 of 108 nM.

`CCN(CC)[C@@H](C)CNC(=O)c1cc(-c2cnn3ccc(-c4cccs4)nc23)nc(N2C[C@H](O)[C@@H](O)C2)c1`: the EC50 is 250 nM.

`CCN(CC)[C@@H](C)CNC(=O)c1cc(N[C@H](C)C(=O)NC)nc(-c2cnn3ccc(-c4cccs4)nc23)c1`: the EC50 is 147 nM.

As for `CCN(CC)[C@@H](C)CNC(=O)c1cc(-c2cnn3ccc(-c4cccs4)nc23)nc(N2CC[C@H]2C(=O)N(C)C)c1`, the response was half-maximal at 10.7 nM (EC50).

In turn, `CCN1CCC[C@H]1CNC(=O)c1cc(-c2cnn3ccc(-c4cccs4)nc23)nc(N2CC(OC)C2)c1` showed an EC50 of 181 nM.

As to `CCN(CC)[C@@H](C)CNC(=O)c1cc(Nc2ncc[nH]2)nc(-c2cnn3ccc(-c4cccs4)nc23)c1`, the EC50 was determined as 247 nM.

For the compound `CCN(CC)CCNC(=O)c1cc(-c2cnn3ccc(-c4cccs4)nc23)nc(N2CC(C)(O)C2)c1`, the EC50 stood at 53.7 nM. This EC50 lies about 4.6-fold lower than the previous one.

In the case of `CCN(CC)[C@@H](C)CNC(=O)c1cc(-c2cnn3ccc(-c4cccs4)nc23)nc(N2CC[C@H]2C(=O)N2CCOCC2)c1`, the EC50 was 21.3 nM.

For `COC1CN(c2cc(C(=O)NC[C@@H]3CCCN3C)cc(-c3cnn4ccc(-c5cccs5)nc34)n2)C1`, the EC50 was 326 nM. This EC50 lies about 15-fold higher than the previous one.

With `CCN(CC)[C@@H](C)CNC(=O)c1cc(-c2cnn3ccc(-c4cccs4)nc23)nc(N2CC[C@H]2C(=O)NCCO)c1`, the EC50 is 84.9 nM.

For `CCN(CC)[C@@H](C)CNC(=O)c1cc(-c2cnn3ccc(-c4cccs4)nc23)nc(N2CCC23COC3)c1`, the EC50 was determined as 54.5 nM.

Compound `CCN(CC)CCNC(=O)c1cc(NCCO)nc(-c2cnn3ccc(-c4cccs4)nc23)c1` gave an EC50 of 136 nM.

The compound `CCN(CC)[C@@H](C)CNC(=O)c1cc(-c2cnn3ccc(-c4cccs4)nc23)nc(N2CCC(F)(F)C2)c1` gave an EC50 of 28.1 nM. Against the preceding compound, the EC50 is about 4.8-fold lower.

In the case of `CCN(CC)[C@@H](C)CNC(=O)c1cc(-c2cnn3ccc(-c4cccs4)nc23)nc(N2CCC[C@H]2CO)c1`, a half-maximal response (EC50) required 112 nM.

`CCN(CC)[C@@H](C)CNC(=O)c1cc(-c2cnn3ccc(-c4cccs4)nc23)nc(N2CCO[C@H](CO)C2)c1` showed an EC50 of 43.5 nM.

`CCN(CC)[C@@H](C)CNC(=O)c1cc(-c2cnn3ccc(-c4cccs4)nc23)nc(N2CC[C@H]2C(=O)Nc2nccs2)c1`: the EC50 came to 127 nM.

In turn, `CCN(CC)[C@@H](C)CNC(=O)c1cc(-c2cnn3ccc(-c4cccs4)nc23)nc(N2CC[C@H]2C(=O)N2CC(OC)C2)c1` showed an EC50 of 32.5 nM.

Take `CCN(CC)[C@@H](C)CNC(=O)c1cc(-c2cnn3ccc(-c4cccs4)nc23)nc(N2CC[C@H]2C(N)=O)c1`: the midpoint of the response, the EC50, lay at 36 nM.

As to `CCN(CC)[C@@H](C)CNC(=O)c1cc(-c2cnn3ccc(-c4cccs4)nc23)nc(N2CC[C@H]2C(=O)N2CCCC2)c1`, the EC50 worked out at 22.3 nM.

In the case of `COC1CN(c2cc(C(=O)NC[C@@H]3CCCN3)cc(-c3cnn4ccc(-c5cccs5)nc34)n2)C1`, the EC50 is 261 nM. Compared with the last compound, the EC50 is about 12-fold higher.

`CCN(CC)[C@@H](C)CNC(=O)c1cc(-c2cnn3ccc(-c4cccs4)nc23)nc(N2CCC(C(N)=O)CC2)c1`: a half-maximal response (EC50) required 115 nM.

`CCN(CC)[C@@H](C)CNC(=O)c1cc(-c2cnn3ccc(-c4cccs4)nc23)nc(N2CC[C@H]2C(=O)N(C)O)c1` showed an EC50 of 25.6 nM.

Turning to `CCN(CC)[C@@H](C)CNC(=O)c1cc(NCc2ncc[nH]2)nc(-c2cnn3ccc(-c4cccs4)nc23)c1`, the EC50 is 148 nM.

Consider `CNC(=O)[C@@H]1CCN1c1cc(C(=O)NC[C@H](C)N)cc(-c2cnn3ccc(-c4cccs4)nc23)n1`, for which the EC50 came to 6740 nM.

The compound `CCN(CC)[C@@H](C)CNC(=O)c1cc(-c2cnn3ccc(-c4cccs4)nc23)nc(N2CCC(OC)CC2)c1` yielded an EC50 of 110 nM.

`CCN(CC)[C@@H](C)CNC(=O)c1cc(NCC(N)=O)nc(-c2cnn3ccc(-c4cccs4)nc23)c1` gave an EC50 of 306 nM.

For the compound `CCN[C@@H](C)CNC(=O)c1cc(-c2cnn3ccc(-c4cccs4)nc23)nc(N2CC(C)(O)C2)c1`, the EC50 stood at 368 nM.

Compound `CCN(CC)[C@@H](C)CNC(=O)c1cc(-c2cnn3ccc(-c4cccs4)nc23)nc(N2CC[C@H]2C(=O)NCC#N)c1` showed an EC50 of 65.3 nM. This EC50 lies about 5.6-fold lower than the previous one.

Consider `CCN(CC)[C@@H](C)CNC(=O)c1cc(-c2cnn3ccc(-c4cccs4)nc23)nc(N2CC(CO)(CO)C2)c1`, for which the EC50 was determined as 107 nM.

`CCN(CC)[C@@H](C)CNC(=O)c1cc(-c2cnn3ccc(-c4cccs4)nc23)nc(N2CCC[C@H]2C(N)=O)c1` showed an EC50 of 259 nM. This EC50 is about 2.4-fold higher than that of the compound before.

`CCN(CC)[C@@H](C)CNC(=O)c1cc(-c2cnn3ccc(-c4cccs4)nc23)nc(N2CC[C@H]2C(=O)O)c1` had an EC50 of 89.3 nM.

Compound `CCN(CC)[C@@H](C)CNC(=O)c1cc(-c2cnn3ccc(-c4cccs4)nc23)nc(N2CC[C@H]2C(=O)N2CC(F)C2)c1` returned an EC50 of 16.2 nM.

`CCN(CC)[C@@H](C)CNC(=O)c1cc(-c2cnn3ccc(-c4cccs4)nc23)nc(N2CC[C@H]2C(=O)NCCOC)c1` registered an EC50 of 47.1 nM.

As to `CCN(CC)[C@@H](C)CNC(=O)c1cc(NCCS(N)(=O)=O)nc(-c2cnn3ccc(-c4cccs4)nc23)c1`, the half-maximal effective concentration (EC50) stood at 232 nM.

The compound `CCN(CC)C(=O)[C@@H]1CCN1c1cc(C(=O)NC[C@H](C)N(CC)CC)cc(-c2cnn3ccc(-c4cccs4)nc23)n1` displayed an EC50 of 25.2 nM.

With `CCN(CC)[C@@H](C)CNC(=O)c1cc(-c2cnn3ccc(-c4cccs4)nc23)nc(N2CC[C@H]2COC)c1`, the EC50 is 78.4 nM.

In turn, `CCN(CC)[C@@H](C)CNC(=O)c1cc(-c2cnn3ccc(-c4cccs4)nc23)nc(N2C[C@@H]3C[C@H]2CO3)c1` showed an EC50 of 514 nM.

`CCN(CC)[C@@H](C)CNC(=O)c1cc(-c2cnn3ccc(-c4cccs4)nc23)nc(N2CC[C@H]2C(=O)NCC(F)(F)F)c1` displayed an EC50 of 41.6 nM.

Consider `CCN(CC)[C@@H](C)CNC(=O)c1cc(-c2cnn3ccc(-c4cccs4)nc23)nc(N2CC[C@H]2C(=O)N2CC(O)C2)c1`, for which the EC50 amounted to 152 nM.

Regarding `CCN(CC)[C@@H](C)CNC(=O)c1cc(-c2cnn3ccc(-c4cccs4)nc23)nc(N2CC[C@H]2C(=O)N2CC(S(C)(=O)=O)C2)c1`, the half-maximal effective concentration (EC50) was 281 nM.

The compound `CCN(CC)CCNC(=O)c1cc(-c2cnn3ccc(-c4cccs4)nc23)nc(N2CC(OC)C2)c1` showed an EC50 of 90.9 nM.

With `CCN(CC)[C@@H](C)CNC(=O)c1cc(N[C@H](C)C(N)=O)nc(-c2cnn3ccc(-c4cccs4)nc23)c1`, the EC50 was found to be 355 nM.

The compound `CCN(CC)[C@@H](C)CNC(=O)c1cc(-c2cnn3ccc(-c4cccs4)nc23)nc(N2CC[C@H]2C(=O)N2CC(NS(C)(=O)=O)C2)c1` displayed an EC50 of 147 nM.

Regarding `CCN[C@@H](C)CNC(=O)c1cc(-c2cnn3ccc(-c4cccs4)nc23)nc(N2CC[C@H]2C(=O)NC)c1`, it took 654 nM to reach a half-maximal effect (EC50).

Regarding `CCNC(=O)[C@@H]1CCN1c1cc(C(=O)NC[C@H](C)N(CC)CC)cc(-c2cnn3ccc(-c4cccs4)nc23)n1`, the EC50 turned out to be 28.5 nM.

The compound `CCNc1cc(C(=O)NC[C@H](C)N(CC)CC)cc(-c2cnn3ccc(-c4cccs4)nc23)n1` had a concentration giving a half-maximal response (EC50) of 97.8 nM.

With `CCN(CC)[C@@H](C)CNC(=O)c1cc(-c2cnn3ccc(-c4cccs4)nc23)nc(N2CC[C@H]2C(=O)NC2CC2)c1`, the EC50 came out at 28 nM.

Turning to `CCN(CC)[C@@H](C)CNC(=O)c1cc(-c2cnn3ccc(-c4cccs4)nc23)nc(N2CC[C@H]2C(=O)N2CCS(=O)(=O)CC2)c1`, the EC50 was found to be 118 nM.

`CCN(CC)[C@@H](C)CNC(=O)c1cc(N[C@@H](C)C(N)=O)nc(-c2cnn3ccc(-c4cccs4)nc23)c1` displayed an EC50 of 148 nM.

As for `CCN(CC)[C@@H](C)CNC(=O)c1cc(-c2cnn3ccc(-c4cccs4)nc23)nc(N2CC[C@@H]2COC)c1`, the EC50 came out at 80.1 nM.

On to `CCN(CC)[C@@H](C)CNC(=O)c1cc(-c2cnn3ccc(-c4cccs4)nc23)nc(N2CC[C@H]2C(=O)NCCF)c1`, for which the concentration giving a half-maximal response (EC50) was 53 nM.

In turn, `CCN(CC)[C@@H](C)CNC(=O)c1cc(-c2cnn3ccc(-c4cccs4)nc23)nc(N2CC[C@H]2C(=O)NOC)c1` had an EC50 of 84.2 nM.

As for `CCN(CC)[C@@H](C)CNC(=O)c1cc(-c2cnn3ccc(-c4cccs4)nc23)nc(N2CC[C@H]2C(=O)N2CC(F)(F)C2)c1`, the response was half-maximal at 29.4 nM (EC50). Against the preceding compound, the EC50 is about 2.9-fold lower.

With `CCN(CC)[C@@H](C)CNC(=O)c1cc(N[C@@H](C)C(=O)NC)nc(-c2cnn3ccc(-c4cccs4)nc23)c1`, the EC50 turned out to be 129 nM.
